Assay type in all cases: in vivo
For experiment [1], the system named is passive cutaneous anaphylaxis (PCA) reaction. Nature of the experiment: Effect on homologous passive cutaneous anaphylaxis (PCA) reaction in rats. The conditions noted are these: Rattus norvegicus, po, 0.5 h, male wistar rats; for inhibition in vivo at 100 mg/kg: test compounds, 100 mg/kg p.o., 1 hour before induction of anaphylaxis. As for the experimental part:
Effect on homologous passive cutaneous anaphylaxis (PCA) reaction in rats
This experimental animal model is caused by immediate type allergic reaction, namely, antigen-antibody reaction. In the following, the method of this pharmacological test will be explained.
Method: Male wistar rats (9 weeks old) were intradermally administered 0.05 ml of anti-serum against dinitrophenylated ascaris (DNP-As) into two sites on the shaved dorsal skin. 48 hours later, aminoquinolinone derivatives (test compounds) suspended in 0.5% methylcellulose (MC) were given orally at a dose of 100 mg/kg to the animals. 1 hour after administration of Test compounds, the animals were induced anaphylaxis by injection of saline (1 ml) dissolving 1 mg of trinitrophenylated ascaris (TNP-As) and 5 mg of Evans Blue into the tail vein of the animals. 30 minutes after induction of anaphylaxis, animals were anesthetized by ether and killed by bleeding, and were flayed dorsal skin. The leakage of dye was assessed by measuring the diameter (mean of shortest and longest diameter) of the blue spot on the inside surface of dorsal skin. As vehicle control group, only 0.5% MC solution was administered orally, and as positive control group, Tranilast suspended in 0.5% MC were administered orally at a dose of 200 mg/kg to the animals with the same method as the test compounds groups, The inhibition (%) of PCA reaction was calculated according to equation 1 and the result was shown in Table 1. Each experimental group consisted of 5 rats.
In the conditions of this experiment, it was considered that the compound, which inhibited PCA reaction by over forty (40) percent against that in vehicle control group, was evidently effective for immediate type allergy.
Inhibition (%)=(A-B)/A×100 (Equation 1)
A: leakage of dye in vehicle control group
B: leakage of dye in test compound group or positive control group

For experiment [2], the system named is contact dermatitis induced by picryl chloride. Nature of the experiment: Effect on contact dermatitis induced by picryl chloride in mice. The note with it: for inhibition in vivo at 20 mg/kg: test compounds, 20 mg/kg p.o. 12 hours after challenge. Here is the method:
Effect on contact dermatitis induced by picryl chloride in mice
The delayed type hypersensitization is inhibited by steroid, but can not be effected by known anti-allergic agents. In the following, the method of the pharmacological test will be explained.
Method: Mice, shaved their abdominal skin on previous day, were immunized by applying 0.1 ml of acetone containing 7 mg of picryl chloride to the skin of the abdomen. 7 days after immunization, the thickness of the ear was measured with a dial thickness gauge, then mice were challenged by painting […] of 1% picryl chloride olive oil solution to each side skin of left ear. 24 hours after challenge, the thickness of the left ear was measured again. The compounds of the present invention (test compounds) suspended in 0.5% MC were forcibly administered orally at a dose of 20 mg/kg 12 hours after challenge. As vehicle control group, only 0.5% MC solution was administered orally, and as positive control group, Prednisolone, steroid hormone, was administered orally at a dose of 10 mg/kg and as negative control group, Tranilast was administered orally at a dose of 200 mg/kg.
Increase (%)=(A-B)/B×100 (Equation 2)
A: thickness of the ear at 24 hours after challenge
B: thickness of the ear before challenge
Inhibition (%)=(C-D)/C×100 (Equation 3)
C: The increase (%) in vehicle control group
D: The increase (%) in test compounds group, positive control group

For experiment [3], the system named is immediate type asthmatic response. As to the kind of experiment: Effect on experimental immediate type asthma model in guinea pigs. The conditions noted are these: airway resistance 1 minute after challenge. An excerpt:
(§1) Effect on experimental immediate and delayed type asthma model in guinea pigs
(§2) The asthma is typical allergic disease and we carried out this pharmacological test by experimental asthmatic model in guinea pigs in order to confirm that the compounds of the present invention, compound 21, 41 and 46, suppress immediate and delayed type asthmatic response. In the following, the method of the pharmacological test will be explained.
(§3) Method: Male hartley guinea pigs were sensitized by exposured aerosolized ovalbumine (OVA) (1% in saline) for 10 minutes per a day at eight times. The aerosol was generated by an ultrasonic nebulizer (NE-U12, Omuron inc.). One week after final sensitization, the animals were challenged with inhalation of OVA (2% in saline) for 5 minutes. The animals were pretreated with metyrapone (10 mg/kg, i.v.) at 1 and 4 hours before the challenge, and pyrilamine (10 mg/kg, i.p.) at 30 minutes before the challenge. airway resistance in the conscious animals were measured for 1 minute with PULMOS-1(made in Medical Interface Project Station Inc.) at 1 minute, 2, 4, 5, 6, 7, 8 and 23 to 24 hours after the challenge. Compound 21, 41 and 46 (test compound) suspended in 0.5% methylcellulose (MC) solution were given orally at doses of 5, 10 and 20 mg/kg 1 hour before and 3 hours after the challenge. As a positive control group, Prednisolone was given orally at a dose of 10 mg/kg 2 hours and 16 hours before the challenge. As vehicle control group, only 0.5% MC solution was given orally.
(§4) The evaluation of the effect of the compounds on immediate and delayed type asthmatic response was undertaken with percentage of change in airway resistance 1 minute after the challenge and the area under the response curve for percentage of change in airway resistance between 4 and 8 hours after the challenge, respectively. The inhibition (%) of the compounds for immediate and delayed type asthmatic response was calculated according to equation 4 and the result was shown in table 3. Each experimental group consisted of 8 guinea pigs.
(§5) Inhibition (%)=(A-B)/A×100 (equation 4)
(§6) A: percentage of change in airway resistance in vehicle control group
(§7) B: percentage of change in airway resistance in test compound group or positive control group

In experiment [4] the test system is delayed type asthmatic response. Nature of the experiment: Effect on experimental delayed type asthma model in guinea pigs. The note with it: AUC of airway resistance 4-8 hours after challenge.
Excerpt: as §1, §2, §3, §4, §5, §6, §7

The mark [5] stands for this setting: Mus musculus, po, ear thickness at 24 hours, read-out: Inhibition (%) of increase of ear thickness.
Setting [6] is: 5 mg/kg p.o. 1 hour before and 3 hours after challenge.
Setting [7] is: 10 mg/kg p.o. 1 hour before and 3 hours after challenge.
Where [8] appears, read: 20 mg/kg p.o. 1 hour before and 3 hours after challenge.
Where [9] appears, read: Prednisolone 10 mg/kg p.o. 2 hours and 16 hours before challenge.

In turn, `C=CCNc1ccc2c(O)c(OCCCCCCCC)c(=O)n(C)c2c1` [compound 46, 7-(2-propenylamino)-3-octyloxy-4-hydroxy-1-methyl-2(1H)-quinolinone] registered an inhibition in vivo at 100 mg/kg in experiment [1] of 46%. Further, in experiment [2] (setting [5]), the inhibition in vivo at 20 mg/kg turned out to be 55%. For the same molecule, the results for the “inhibition (%), immediate type asthma” value in experiment [3] (setting [6]), in experiment [3] (setting [7]) and in experiment [3] (setting [8]) were 30%, 28% and 33%, respectively. Besides, the “inhibition (%), delayed type asthma” value in experiment [4] (setting [6]) is given as 32%; in experiment [4] (setting [7]), 44%; in experiment [4] (setting [8]), 53%.

Consider `C[C@]12C=CC(=O)C=C1CC[C@@H]1[C@@H]2[C@@H](O)C[C@@]2(C)[C@H]1CC[C@]2(O)C(=O)CO` [Prednisolone, reference compound], for which the inhibition in vivo at 10 mg/kg in experiment [2] (Mus musculus, po, 24 h, read-out: Inhibition (%) of increase of ear thickness) was found to be 53%. Moreover, the “inhibition (%), immediate type asthma” value in experiment [3] (setting [9]) stood at 35%. Besides, the “inhibition (%), delayed type asthma” value in experiment [4] (setting [9]) is recorded as 51%.

In turn, `CCCCCCOc1c(O)c2ccc(N)cc2n(C)c1=O` [compound 21, 7-amino-3-hexyloxy-4-hydroxy-1-methyl-2(1H)-quinolinone] registered an inhibition in vivo at 100 mg/kg in experiment [1] of 60%. In addition, in experiment [2] (setting [5]), the inhibition in vivo at 20 mg/kg is 51%. For the same molecule, the “inhibition (%), immediate type asthma” value is recorded as 20% in experiment [3] (setting [6]), 30% in experiment [3] (setting [7]) and 31% in experiment [3] (setting [8]). For the same molecule, the figures for the “inhibition (%), delayed type asthma” value in experiment [4] (setting [6]), in experiment [4] (setting [7]) and in experiment [4] (setting [8]) were 23%, 39% and 48%, respectively.

`CCCCn1c(=O)c(O)c(OCC=C(C)C)c2ccc(NC)cc21` [compound 38, 7-methylamino-3-hydroxy-4-prenyloxy-1-butyl-2(1H)-quinolinone]: the inhibition in vivo at 100 mg/kg in experiment [1] turned out to be 40%. In experiment [2] (setting [5]), the inhibition in vivo at 20 mg/kg came to 37%.

In turn, `CCCCn1c(=O)c(OCC=C(C)C)c(O)c2ccc(NC)cc21` [compound 37, 7-methylamino-3-prenyloxy-4-hydroxy-1-butyl-2(1H)-quinolinone] came in with an inhibition in vivo at 100 mg/kg in experiment [1] of 42%. For the same molecule, the inhibition in vivo at 20 mg/kg in experiment [2] (setting [5]) was 45%.

`COc1c(O)c2ccc(N)cc2n(C)c1=O` [compound 19, 7-amino-3-methoxy-4-hydroxy-1-methyl-2(1H)-quinolinone] displayed an inhibition in vivo at 100 mg/kg in experiment [1] of 44%. Moreover, in experiment [2] (setting [5]), the inhibition in vivo at 20 mg/kg was found to be 45%.

`CCCCCCCCOc1c(O)c2ccc(NC(=O)/C=C/c3cc(OC)c(O)c(OC)c3)cc2n(C)c1=O` [compound 41, 7-(3,5-dimethoxy-4-hydroxycinnamoylamino)-3-octyloxy-4-hydroxy-1-methyl-2(1H)-quinolinone] returned an inhibition in vivo at 100 mg/kg in experiment [1] of 53%. Moreover, the inhibition in vivo at 20 mg/kg in experiment [2] (setting [5]) came to 50%. In addition, the “inhibition (%), immediate type asthma” value in experiment [3] (setting [6]) is reported as 26%; in experiment [3] (setting [7]), 31%; in experiment [3] (setting [8]), 43%. In addition, the figures for the “inhibition (%), delayed type asthma” value in experiment [4] (setting [6]), in experiment [4] (setting [7]) and in experiment [4] (setting [8]) were 39%, 54% and 84%, respectively.

For the molecule `COc1ccc(/C=C/C(=O)Nc2ccccc2C(=O)O)cc1OC` [Tranilast, reference compound], the inhibition in vivo at 200 mg/kg in experiment [1] (positive control Tranilast, 200 mg/kg p.o.) worked out at 54%; in experiment [2] (Mus musculus, po, negative control Tranilast, 200 mg/kg p.o., ear thickness at 24 hours, read-out: Inhibition (%) of increase of ear thickness), 6%. In addition, the “inhibition of delayed type hypersensitization (in words)” value in experiment [2] (Tranilast, 200 mg/kg p.o.) is listed as “did not inhibit delayed type hypersensitization”.

As for `CCCCCCCCCCOc1c(O)c(=O)n(CCC)c2cc(N)ccc12` [compound 34, 7-amino-3-hydroxy-4-decyloxy-1-propyl-2(1H)-quinolinone], the inhibition in vivo at 100 mg/kg in experiment [1] turned out to be 40%. Further, the inhibition in vivo at 20 mg/kg in experiment [2] (setting [5]) turned out to be 37%.
